From patent USRE32300E, “Basic amino or ammonium antimicrobial agent-polyethylene glycol ester surfactant-betaine and/or amine oxide surfactant compositions and method of use thereof” (Sterling Drug Inc., priority 1985, dated 1986) come the findings set out here.

For the experiment, the system named is Staphylococcus aureus ATCC 6538. Kind of experiment: serial dilution test against Staphylococcus aureus ATCC 6538 (compatibility of antimicrobial agents with prototype vehicle). The conditions noted are these: Id expressed as free base, IVa-IVc as cation (A=Br). It is filed as cell-based. The method, then:
Compatability of the antimicrobial agents of Formula Id, Formula IIa, Formula IVa (A=Br), Formula IVb (A=Br) and Formula IVc (A=Br) with a prototype vehicle of the invention was tested by a serial dilution test against Staphylococcus aureus ATCC 6538. Volumes of two milliliters were used. Dilutions were in tryptosephosphate broth. Incubation was for 16-18 hours at 37° C. Growth was verified with 2,3,5-triphenyltetrazoliumchloride. The inoculum was 1.8×10^5 viable cells per tube. There follows the formula of the prototype vehicle.

Molecules are shown by their SMILES.

For the molecule `CCCCCCCNc1cc[n+](CCCCCCCCCCCC[n+]2ccc(NCCCCCCC)cc2)cc1` [Formula IVa], the “Minimum Inhibitory Concentration (MIC)” value amounted to 0.10 µg/mL (added vehicle 125.0 μg/ml); 0.10 µg/mL (added vehicle 250.0 μg/ml); 0.10 µg/mL (added vehicle 500.0 μg/ml); 0.10 µg/mL (added vehicle 2000.0 μg/ml); 0.10 µg/mL (added vehicle 8000.0 μg/ml).
Consider `CCCCCCCCNc1cc[n+](CCCCCCCCCC[n+]2ccc(NCCCCCCCC)cc2)cc1` [Formula IVb], for which the “Minimum Inhibitory Concentration (MIC)” value came to 0.5 µg/mL (added vehicle 0 μg/ml); 0.5 µg/mL (added vehicle 15.6 μg/ml); 0.5 µg/mL (added vehicle 31.2 μg/ml); 0.5 µg/mL (added vehicle 62.5 μg/ml); 0.5 µg/mL (added vehicle 125.0 μg/ml).
